Tests used:
Assay type in all cases: cell-based, chicken
[1] = system: VJ region of antibody light chain gene in DT40 cell line (3H12); test: MNase sensitivity (indirect end labeling, Southern blot) of antibody light chain gene chromatin after TSA treatment; details: 3H12 cells incubated 8 hours with TSA 0.625, 1.25, 2.5 ng/ml; MNase 0.04-1 U
Experimental: Whether an alteration of the chromatin structure of the antibody light chain gene has actually been produced by TSA was analyzed using indirect end labeling with micrococcal nuclease (MNase) sensitivity as an indicator. Among chicken antibody alleles, one is VJ rearranged and the other one is not rearranged, but it is known that actually functional in antibody production is VJ rearranged one. However, since both sequences are almost identical, it is difficult to analyze VJ rearranged allele of wild type DT40 cells by simple application of indirect end labeling method. In order to solve this problem, on the side for which VJ recombination has not occurred, a mutant of which sequences in the vicinity of the region to be used as a Southern hybridization probe is deleted is generated, and an analysis of MNase sensitivity using this mutant was performed. […]
The nuclear pellet was resuspended in 10 ml RSB (10 mM Tris-HCl (pH7.5), 10 mM NaCl, 1.5 mM MgCl2, 0.5 mM DTI. 1 mM PMSF). […] The DNA concentration of this nuclear suspension was measured by Hoechst 33258 binding, and suspension corresponding to 100 μg was made into […] with RSB. […]

DT40 cells = test: Sequence analysis of antibody light chain gene variable region (somatic homologous recombination)
Experimental: DT40 cells were incubated at 39.5 degrees C. in a CO2 constant temperature oven in 5% CO2. IMDM medium (Invitrogen) was utilized as the medium, with 10% FBS, 1% chicken serum, 100 units/ml penicillin, 100 μg/ml streptomycin, and 55 μM 2-mercaptoethanol added. Additionally, for trichostatin A (Wako Pure Chemical Industries), this was dissolved to 5 mg/ml in methanol for stock, and this was used by diluting in an appropriate medium until the final concentration was 1.25 ng/ml.
(§1) At this time, a medium with 1.25 ng/ml trichostatin A added, and a medium with this not added, were prepared. This was incubated until single colonies appeared, and 5 clones (For No TSA, 6 clones) were transferred to a 6 well plate with 2 ml of fresh medium inside. At this time, incubation was continued by maintaining the original TSA concentration, and maintaining the cell concentration at 10^5-10^6 cells/ml.
With the abovementioned method, live cells of DT40 that were incubated for 3 weeks were recovered by fluorescence-activated cell sorter. With an EPICS ELITE ESP, 100 000 live cells were collected in a 1.5 ml tube. […]
PCR (Perkin Elmer 9600) was utilized for the amplification of the antibody light chain gene variable region. […] Plasmids were extracted, and the sequence was analyzed by an ABI PRI SM 377 DNA Sequencer (Perkin Elmer).

IgM(-) DT40 cells = test: IgM expression by FACS (appearance frequency of IgM(+) cells); details: 1.25 ng/ml trichostatin A, measured every other week by FACS
Experimental: as §1
Culture fluid containing approximately 10^6 IgM(−) cells on which trichostatin A treatment was done by the method described in Embodiment 2 was put in 1.5 ml tubes, said cells were recovered by centrifuging (1000 g, 5 minutes), and suspended in 200 μl of staining buffer (PBS, 0.3% BSA). The cells were recovered by centrifuging again, then suspended in 200 μl of FITC-labeled anti chicken IgM antibody (BETHYL) diluted to 1/250 fold with a staining buffer, and reacted for 1 hour on ice. The cells were recovered by centrifuging, then the cells were washed by suspending them again in 200 μl of staining buffer, and centrifuging this. After repeating this washing step one more time, the cells were suspended in 100 μl of staining buffer containing 5 μg/ml of propidium iodide (Nakarai). The fraction of cells expressing IgM was calculated by measuring 10 000 cells with an EPICS ELITE ESP (Beckman Coulter). At this time, cells stained by propidium iodide were gated out as dead cells.

CC(/C=C/C(=O)NO)=C\[C@@H](C)C(=O)c1ccc(N(C)C)cc1 [trichostatin A]
accessibility of MNase to the VJ regions [1]: increased | chromatin structure of the VJ regions [1]: relaxed | diversity of antibody light chain genes (DT40 cells; DT40 cells cultured 3 weeks with 1.25 ng/ml trichostatin A vs absence): rose markedly | number of sequence types of antibody light chain gene variable region among 42 samples (DT40 cells; DT40 cells cultured 3 weeks with 1.25 ng/ml trichostatin A, 42 samples): 16 types | fraction of cells expressing IgM (IgM(+) cells) (IgM(-) DT40 cells): increased time dependently

— patent publication US8187884B2, “Method of enhancing homologous recombination of somatic cells and method of constructing specific antibody” (Riken, priority 2002, dated 2012)
